# Publication PMC6389498, “Control of Bacterial Virulence through the Peptide Signature of the Habitat” (Cell Reports, 2019)
# Read-outs that look alike come from different tables or passages of the source. Residues, ends and D or L forms follow the SMILES beside them.
# Columns and labels:
# PrfA [1] = target: T1, PrfA (Listeria monocytogenes serovar 1/2a, UniProt P22262); assay: biochemical; type: binding; parameters: His tag (inferred from pET28a vector and nickel-column purification); made in house; host or cells: E. coli BL21; details: for Binding to PrfA detected by ITC: ITC with purified PrfA, free L-Leu at 1 mM
# T1 sequence (P22262 whole entry): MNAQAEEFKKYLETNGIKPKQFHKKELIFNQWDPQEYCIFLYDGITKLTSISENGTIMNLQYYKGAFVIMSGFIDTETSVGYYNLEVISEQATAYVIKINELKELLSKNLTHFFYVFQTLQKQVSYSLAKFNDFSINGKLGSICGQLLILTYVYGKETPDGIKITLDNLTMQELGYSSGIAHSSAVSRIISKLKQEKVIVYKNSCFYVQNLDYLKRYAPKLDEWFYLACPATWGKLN
# [2] = system: PrfA-dependent expression (PrfA-regulated hly promoter, luxABCDE reporter); assay: Phly-lux reporter of PrfA-dependent gene expression, wild-type P14; type: cell-based, Listeria monocytogenes; details: for PrfA downregulation (repression of Phly-lux expression): wild-type P14 in regular CDM (0.8 mM Cys), 1 mM peptide vs no-peptide control, 37°C, maximum normalized luminescence, means of three triplicate experiments
# Procedure: (§1) Listeria were routinely grown in porcine BHI (BD-Difco) and Escherichia coli in Luria-Bertani (LB) media, with 1% agar for solid cultures. For adsorbent-treated BHI agar, 1% (w/v) Amberlite XAD4 resin (Sigma-Aldrich) or 0.5% (w/v) activated charcoal powder (Merck) was added to the medium prior to autoclaving. For fluid Amberlite XAD4-treated BHI cultures (BHI-Amb), the resin was aseptically removed after autoclaving to avoid interference with optical density (OD) readings. Chemically defined CDM is a modification of the improved minimal medium (IMM) of [Phan-Thanh and Gormon (1997)], with the following composition: 6.56 g/L […], 30.96 g/L NaHPO4 7H2O, 0.41 g/L MgSO4, 88 mg/L ferric citrate, 0.1 g/L each of the (L-) amino acids leucine, isoleucine, valine, methionine, arginine, cysteine, histidine and tryptophan, 0.6 g/L L-glutamine, 2.5 mg/L adenine, 0.5 mg/L biotin, 5 mg/L riboflavin, 1 mg/L each of thiamine, pyridoxal, para-aminobenzoic acid, calcium panthothenate and nicotinamide, 5 μg/L thioctic acid and 4.5 g/L glucose. CDM was used freshly prepared from filter-sterilized stock solutions stored at 4°C (except cysteine, glutamine, biotin and ferric citrate solutions, kept at –20°C; and phosphates, MgSO4 and glucose, at room temperature). Antibiotic supplements (μg/mL) were as follows (lower values for Listeria, others for E. coli or both): erythromycin 5 or 250, chloramphenicol 7.5 or 20, spectinomycin 100, carbenicillin 100. All incubations were carried out at 37°C, with 180 rpm orbital shaking for fluid cultures, unless stated otherwise. GSH was kept in reduced state with 2 mM Tris[2-carboxyethyl]phosphine hydrochloride (TCEP) in the stock solution. Chemicals and oligonucleotides were from Sigma-Aldrich unless otherwise indicated.
# (§2) PrfA-dependent gene expression was quantitatively analyzed throughout the L. monocytogenes growth curve using a chromosomally integrated luxABCDE operon under the control of the PrfA-regulated hly promoter ([Bron et al., 2006]). Overnight bacterial cultures were washed, resuspended in PBS and used to inoculate fresh medium to an initial OD at 600 nm (OD600) ≈0.02-0.05. Triplicate 200-μl aliquots were transferred to opaque 96-well plates with clear bottom (ThermoScientific) and OD600 and luminescence readings taken every 30 min during incubation in an automated microplate reader (FLUOstar Omega, BMG Labtech). Bioluminescence values were normalized to growth at each time point. RT-qPCR transcription analysis was performed on total RNA samples extracted from mid-exponential L. monocytogenes cultures (OD600 ≈0.2-0.3 for BHI media) using RNeasy mini kit (QIAGEN) as previously described ([Deshayes et al., 2012]). The number of transcripts was calculated by interpolation of threshold cycle (CT) values of cDNA amplifications in a standard regression curve generated from samples of known DNA concentration. Expession data were normalized by dividing the number of transcripts of the test gene by the geometric mean of the number of transcripts of the reference housekeeping genes rpoB and ldh ([Deshayes et al., 2012]). See Table S3 for oligonucleotides used.
# [3] = target: T2, PrfA^WT binding to the PplcA/hly PrfA box (Listeria monocytogenes serovar 1/2a, UniProt P22262); assay: Biolayer interferometry of PrfA-DNA binding, PrfAWT; type: biochemical; details: BLI, PrfA^WT-ligand mixes at 1:100 molar ratio, 50 mM Tris-Cl pH 7.5, 300 mM NaCl, 0.05 Tween 20; at least two experiments
# T2 construct: His tag (inferred from pET28a vector and nickel-column purification); made in house; host or cells: E. coli BL21
# T2 sequence (P22262 whole entry): as above
# Procedure: Bacterial pellets of IPTG-induced cultures of E. coli BL21(pET28aprfA^WT) ([Deshayes et al., 2012]; Table S2) were resuspended in lysis buffer (50 mM Tris pH 7.5, 300 mM NaCl, 20 mM imidazole) and lysed with an EmulsiFlex homogenizer. After affinity chromatography on a HiTrap HP nickel column in an AKTA system (GE Healthcare), PrfA-containing fractions were pooled together, loaded on a HiTrap Heparin HP column and then on a Superdex 75 Gel Filtration column to remove nucleic acid and protein contaminants. The buffer used for the gel filtration and storage was 50 mM Tris pH 7.5, 300 mM NaCl. Fluorescence-based thermal shift assays were performed in a real-time PCR instrument (Bio-Rad) using 25 μL triplicate samples containing 10 μΜ recombinant PrfA, 5 × SyprOrange (Invitrogen) and 1 mM synthetic peptide. Isothermal Titration Calorimetry (ITC) experiments were performed in a GE MicroCal iTC200 system (GE Healthcare). PrfA was changed to 50 mM Tris pH 7.5, 500 mM NaCl buffer and 100 μΜ of PrfA protein injected into the cell. […] Data were analyzed with the inbuilt software of the ITC apparatus using a one-site model. The specific DNA-binding activity of PrfA was measured by biolayer interferometry (BLI) with a FortéBio Octet^RED 96 apparatus using a biotinylated double-stranded oligonucleotide containing the PplcA/hly PrfA box (Table S3). […]
# [4] = system: PrfA-dependent expression (PrfA-regulated hly promoter, luxABCDE reporter); assay: Phly-lux reporter of PrfA-dependent gene expression, opp (oppF::Tn) or ΔgshF mutant; type: cell-based, Listeria monocytogenes; details: for Rescue of PrfA phenotype of opp mutant: opp mutant in BHI-Amb, GSH 1 mM, L-cysteine at the CDM concentration
# Procedure: as §1
# as §2, with “RT-qPCR transcription analysis was performed on total RNA samples extracted from mid-exponential L. monocytogenes cultures (OD600 ≈0.2-0.3 for BHI media) using RNeasy mini kit (QIAGEN) as previously described ([Deshayes et al., 2012]).” left out, “Expession data were normalized by dividing the number of transcripts of the test gene by the geometric mean of the number of transcripts of the reference housekeeping genes rpoB and ldh ([Deshayes et al., 2012]). See Table S3 for oligonucleotides used.” left out
# PrfA [5] = target: T1, PrfA; details: read-out: Kd for PrfA; ref Reniere et al., 2015; cited from earlier work
# L. monocytogenes P14 [6] = assay: Fosfomycin MIC; type: cell-based; details: Listeria monocytogenes
# L. monocytogenes P14 [7] = type: cell-based, Listeria monocytogenes
# PrfA [8] = target: T1, PrfA; type: binding; parameters: His tag (inferred from pET28a vector and nickel-column purification); made in house; host or cells: E. coli BL21
molecule,measurement,setting,value
"CC(C)C[C@H](NC(=O)[C@@H](N)CC(C)C)C(=O)O [LL, L-leucylleucine]",Kd,PrfA [1],~25 µM
"CC(C)C[C@H](N)C(=O)O [free Leu, leucine]",PrfA downregulation (repression of Phly-lux expression),[2],not inhibitory
same,Inhibition of PrfA-DNA binding,[3],not
same,Binding to PrfA detected by ITC,PrfA [1],no binding was detected
"N[C@@H](CCC(=O)N[C@@H](CS)C(=O)NCC(=O)O)C(=O)O [GSH, γ-L-Glutamyl-L-cysteinylglycine]",Rescue of PrfA phenotype of opp mutant,[4],fully restored the parental PrfA^+ phenotype
same,Reversal of PrfA– phenotype of ΔgshF mutant,"[4]; ΔgshF in BHI-Amb, 1 mM exogenous GSH (even at 8 mM, data not shown)",did not revert the PrfA^– phenotype
same,Kd,PrfA [5],~4000 µM
same,Binding to PrfA detected by ITC,PrfA [1],undetectable by ITC
CC(C)C[C@H](NC(=O)[C@H](CC(C)C)NC(=O)[C@@H](N)CC(C)C)C(=O)O [LLL] (H-Leu-Leu-Leu-OH),Kd,PrfA [1],~25 µM
C[C@@H]1O[C@@H]1P(=O)(O)O [fosfomycin],MIC,L. monocytogenes P14 [6],12 to 32 µg/mL
KLLLLK [known listerial Opp substrate],PrfA downregulation (repression of Phly-lux expression),[2],96%
RGDC [Cys-containing synthetic tetrapeptide transported by Opp],Concentration that completely cancelled LL/LLL-mediated repression,"[2]; wild-type in CDM with limiting Cys (0.1 mM), against fixed 0.25 mM LL or LLL",80 µM
same,Growth and PrfA-dependent expression with peptide as Cys source,"[2]; wild-type, CDM without Cys supplemented with 0.32 mM RGDC peptide",promoted growth and PrfA-dependent expression
same,Growth and PrfA-dependent expression with peptide as Cys source,"[4]; opp mutant, CDM without Cys supplemented with 0.32 mM RGDC peptide",not
SQNPYPIV [known listerial Opp substrate],PrfA downregulation (repression of Phly-lux expression),[2],59%
RKDVY [known listerial Opp substrate],PrfA downregulation (repression of Phly-lux expression),[2],no effect
"N[C@@H](CS)C(=O)O [Cys, L-cysteine]",Amount required to completely cancel LL/LLL-mediated repression,"[2]; wild-type in CDM with limiting Cys (0.1 mM), against fixed 0.25 mM Leu peptide",6.4 mM
same,Rescue of PrfA phenotype of opp mutant,[4],Rescue of opp mutant
same,Minimum concentration for eugonic growth,"L. monocytogenes P14 [7]; CDM, wild-type and opp bacteria",≈ 0.2 mM
same,Concentrations that inhibit P14 growth,L. monocytogenes P14 [7]; Cys-deplete CDM supplemented with increasing free Cys,≥ 12800 µM
"ASSLLLVG [listerial derived octapeptide, putative peptide pheromone pPplA]",PrfA downregulation (repression of Phly-lux expression),[2],88%
same,Change in melting temperature (Tm) of purified PrfA,PrfA [8],significant drop in the Tm
